Measured values from article PMC6556873, “Rapid Covalent-Probe Discovery by Electrophile-Fragment Screening” (Journal of the American Chemical Society, 2019).
Read-outs that look alike come from different tables or passages of the source.

Experiments:
BSA = biological target: T1, BSA (Bos taurus, UniProt P02769); design: Intact protein LC/MS covalent labelling, fragments in pools of five, 200 uM each, 4 °C; details: 24 h, 4 °C, pool of five; 200 µM; covalent
T1 construct: gene ALB

NUDT7 = biological target: T2, NUDT7 (Homo sapiens, UniProt P0C024); design: Intact protein LC/MS covalent labelling, fragments in pools of five, 200 uM each, 4 °C; details: 24 h, 4 °C, pool of five; 200 µM; covalent
T2 construct: residues 14-235, E. coli, pNIC28-Bsa4, N-terminal His6 tag removed by TEV, construct 26672 Da
T2 sequence (P0C024 14-235): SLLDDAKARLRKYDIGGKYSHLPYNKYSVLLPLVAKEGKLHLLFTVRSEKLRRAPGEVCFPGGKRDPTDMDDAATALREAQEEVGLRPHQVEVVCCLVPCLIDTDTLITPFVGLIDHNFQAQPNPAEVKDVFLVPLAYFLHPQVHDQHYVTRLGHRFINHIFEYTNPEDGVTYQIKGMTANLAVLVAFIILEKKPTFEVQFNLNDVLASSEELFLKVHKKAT

NNMT (hNNMT) = biological target: T3, NNMT (hNNMT) (Homo sapiens, UniProt P40261); design: Intact protein LC/MS covalent labelling, fragments in pools of five, 200 uM each, 4 °C; details: 24 h, 4 °C, pool of five; 200 µM; covalent
T3 construct: wild type, N-terminal His6 tag kept (no cleavage described), E. coli, construct 31248 Da
T3 sequence (P40261 1-264): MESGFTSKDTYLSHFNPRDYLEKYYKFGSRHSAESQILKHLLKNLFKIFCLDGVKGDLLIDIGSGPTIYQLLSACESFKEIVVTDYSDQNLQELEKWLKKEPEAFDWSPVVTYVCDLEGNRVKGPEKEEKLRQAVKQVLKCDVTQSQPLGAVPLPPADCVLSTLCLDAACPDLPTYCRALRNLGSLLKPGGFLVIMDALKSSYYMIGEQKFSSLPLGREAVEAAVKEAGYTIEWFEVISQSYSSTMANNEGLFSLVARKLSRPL

PCAF = biological target: T4, PCAF (Homo sapiens, UniProt Q92831); design: Intact protein LC/MS covalent labelling, fragments in pools of five, 200 uM each, 4 °C; details: 24 h, 4 °C, pool of five; 200 µM; covalent
T4 construct: gene KAT2B
T4 sequence (Q92831 whole entry, the tested form may be a part): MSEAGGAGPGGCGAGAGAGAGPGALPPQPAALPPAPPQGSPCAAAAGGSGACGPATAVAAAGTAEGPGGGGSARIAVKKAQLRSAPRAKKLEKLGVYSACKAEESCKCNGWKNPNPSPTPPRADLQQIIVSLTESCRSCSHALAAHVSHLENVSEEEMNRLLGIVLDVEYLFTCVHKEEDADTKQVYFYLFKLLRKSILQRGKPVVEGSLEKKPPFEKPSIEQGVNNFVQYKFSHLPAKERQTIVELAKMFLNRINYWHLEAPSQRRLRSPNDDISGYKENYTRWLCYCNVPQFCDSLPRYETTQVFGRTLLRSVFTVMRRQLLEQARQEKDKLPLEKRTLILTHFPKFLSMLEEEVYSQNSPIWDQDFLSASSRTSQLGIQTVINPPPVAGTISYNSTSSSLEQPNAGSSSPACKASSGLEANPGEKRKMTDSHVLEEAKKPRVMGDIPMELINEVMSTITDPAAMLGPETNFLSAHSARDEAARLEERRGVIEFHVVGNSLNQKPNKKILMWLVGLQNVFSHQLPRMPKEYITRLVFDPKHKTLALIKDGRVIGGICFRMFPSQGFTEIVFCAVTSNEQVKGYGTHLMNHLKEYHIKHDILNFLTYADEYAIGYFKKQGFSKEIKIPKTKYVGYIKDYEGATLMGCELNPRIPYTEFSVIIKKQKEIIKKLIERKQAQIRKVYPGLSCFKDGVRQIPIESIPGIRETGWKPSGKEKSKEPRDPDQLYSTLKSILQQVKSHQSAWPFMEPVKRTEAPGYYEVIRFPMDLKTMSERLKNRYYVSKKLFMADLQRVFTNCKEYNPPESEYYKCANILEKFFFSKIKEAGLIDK

OTUB2 (OTUB2A) = biological target: T5, OTUB2 (OTUB2A) (Homo sapiens, UniProt Q96DC9); design: Intact protein LC/MS covalent labelling, fragments in pools of five, 200 uM each, 4 °C; details: 24 h, 4 °C, pool of five; 200 µM; covalent
T5 construct: full length residues 1-234, E. coli BL21(DE3)-R3, His tag removed by TEV, construct 27312 Da
T5 sequence (Q96DC9 1-234): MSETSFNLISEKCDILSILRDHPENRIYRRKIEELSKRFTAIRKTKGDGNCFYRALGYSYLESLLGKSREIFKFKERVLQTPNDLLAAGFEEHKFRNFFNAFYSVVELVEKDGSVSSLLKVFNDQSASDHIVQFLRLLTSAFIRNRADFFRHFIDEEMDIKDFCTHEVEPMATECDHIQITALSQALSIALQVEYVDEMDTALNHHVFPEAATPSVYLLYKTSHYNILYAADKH

in vitro [1] = assay: in vitro; design: species or system CCD841, HEK293; details: human, hb2 cells, read-out: HB-2 Cells Viability (%)
in vitro [2] = assay: in vitro; design: species or system HB2, HEK293; details: human, ccd841 cells
in vitro [3] = assay: in vitro; design: species or system HB2, CCD841; details: human, hek293 cells

T1 sequence (P02769 whole entry, the tested form may be a part): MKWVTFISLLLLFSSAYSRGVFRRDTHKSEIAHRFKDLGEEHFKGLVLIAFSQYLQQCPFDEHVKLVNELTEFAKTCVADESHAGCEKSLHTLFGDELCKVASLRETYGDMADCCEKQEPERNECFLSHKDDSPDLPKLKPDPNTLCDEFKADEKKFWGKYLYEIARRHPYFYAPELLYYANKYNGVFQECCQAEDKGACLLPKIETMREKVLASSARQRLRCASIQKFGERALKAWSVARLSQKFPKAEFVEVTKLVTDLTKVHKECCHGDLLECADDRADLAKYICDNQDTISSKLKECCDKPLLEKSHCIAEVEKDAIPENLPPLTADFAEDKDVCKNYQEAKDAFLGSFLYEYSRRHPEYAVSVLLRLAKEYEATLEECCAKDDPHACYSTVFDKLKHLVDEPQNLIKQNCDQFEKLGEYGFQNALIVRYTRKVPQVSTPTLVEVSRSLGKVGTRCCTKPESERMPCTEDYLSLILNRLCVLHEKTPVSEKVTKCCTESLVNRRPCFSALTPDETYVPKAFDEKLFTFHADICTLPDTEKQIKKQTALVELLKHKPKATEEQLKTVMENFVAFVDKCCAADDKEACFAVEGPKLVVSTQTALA

BSA (BSA)	NUDT7 (NUDT7)	NNMT (NNMT (hNNMT))	PCAF (PCAF)	OTUB2 (OTUB2 (OTUB2A))	SMILES	viability at 48 h, 10 µM (in vitro [1])	viability at 48 h, 10 µM (in vitro [2])	viability at 48 h, 10 µM (in vitro [3])
0	0	0	0	0	C=CC(=O)NC1CCCN(c2cc(C)nn2C)C1=O (stereo not shown) [PCM-0102991]	98.2%	113%	94.5%
0	0.08	0	0	0	N#CC1(NC(=O)CCl)CCCCC1 [PCM-0102993]	87.6%	83.3%	66%
0	0.26	0.46	0	0	Cc1cc(C)c(NC(=O)CCl)c(Cl)c1 [PCM-0102994]	94%	73.1%	74.1%
0	0	0.23	0	0.05	CC(NC(=O)NC(=O)CCl)C1CC2CCC1C2 (stereo not shown) [PCM-0102997]	98.1%	116%	91.4%
0	0	0	0	0.3	O=C(CCl)Nc1ccc(F)cc1 [PCM-0103002]	68.5%	71.8%	35.5%
0	0	0	0	0	C=CC(=O)N1CCCN(C(=O)c2cc(Cl)cn2C)CC1 [PCM-0103003]	105%	101%	96.7%
0	0	0	0	0	Cl.O=C(CCl)N1CCN(Cc2ccco2)CC1 [PCM-0103006]	88.6%	85%	65.7%
0	0	0	0	1	CCc1sc(C(=O)NNC(=O)CCl)cc1C [PCM-0103009]	70.4%	68.3%	73.2%
0	0	0.13	0	0.09	CCOC(=O)C1CCCN(C(=O)CCl)C1 (stereo not shown) [PCM-0103015]	104%	98.8%	98.8%
0	0	0	0	0.16	CS(=O)(=O)c1ccc(F)c(NC(=O)CCl)c1 [PCM-0103018]	57.6%	53.6%	24.3%
0	0	0	0	0	CC(C)N(C(=O)CCl)C(C)C [PCM-0103023]	102%	106%	110%
0.18	0	0.23	0	0.14	Cc1ccc(NC(=O)CCl)c(F)c1 [PCM-0103028]	42.3%	58.4%	29%
0	0.15	0.58	0	0.34	CC(NC(=O)CCl)c1ccc(F)cc1F (stereo not shown) [PCM-0103035]	77.6%	78.2%	66.4%
0.19	0	0.19	0	0	Cl.O=C(CCl)Nc1ccc(Cl)cn1 [PCM-0103036]	98.5%	96.4%	113%
